Reference: EPA's ToxValDB 9.5 (doi:10.2903/j.efsa.2006.58r)

How the values were obtained:
Aphidius rhopalosiphi = experiment: LR50; higher = less toxic; conditions: not reported; mortality
Typhlodromus pyri = experiment: LR50; higher = less toxic; conditions: not reported; mortality
Anas platyrhynchos = conditions: acute; oral; unspecified; mortality
Bibionidae = conditions: chronic/long-term; duration: 40 days
Plant = conditions: not reported; no effects
Daphnia magna = conditions: chronic/long-term; duration: 21 days
Apis mellifera = conditions: acute, mortality
Oncorhynchus mykiss = conditions: acute; duration: 96 hours; mortality
Pontoscolex corethrurus = conditions: for NOEC: chronic/long-term
Pimephales promelas = conditions: chronic/long-term; duration: 32 days

**Q.** How did the LR50 (Aphidius rhopalosiphi) turn out when `COc1cc(C)c(C(=O)c2c(OC)ccc(Br)c2C)c(OC)c1OC` [Metrafenone] was run?
**A.** > 300 g/ha

**Q.** What about the LR50 (Typhlodromus pyri) of the same molecule?
**A.** > 500 g/ha

**Q.** And the LD50 (Rattus norvegicus; acute, oral, mortality)?
**A.** > 5000 mg/kg-day

**Q.** What about the NOAEL (Rattus norvegicus; chronic, duration: 2 years, oral, histopathology: neoplastic) of the same molecule?
**A.** 25 mg/kg-day

**Q.** What about the NOAEL (Rattus norvegicus; reproduction developmental) of the same molecule?
**A.** 811 mg/kg-day

**Q.** What about the NOAEL (Rattus norvegicus; subchronic, duration: 13 weeks, oral, organ weight) of the same molecule?
**A.** 43 mg/kg-day

**Q.** What about the LD50 (Anas platyrhynchos) of the same molecule?
**A.** > 2020 mg/kg-day

**Q.** What about the NOEC (Bibionidae) of the same molecule?
**A.** 1 mg/L

**Q.** What about the LEL (Plant) of the same molecule?
**A.** 300 g/ha

**Q.** What about the NOEC (Daphnia magna) of the same molecule?
**A.** 0.225 mg/L

**Q.** And the LD50 (Apis mellifera; dermal)?
**A.** > 100 µg/piece

**Q.** What about the LD50 (Apis mellifera; oral, unspecified) of the same molecule?
**A.** > 114 µg/piece

**Q.** What about the LC50 (Oncorhynchus mykiss) of the same molecule?
**A.** > 0.82 µg/mL

**Q.** And the NOEC (Colinus virginianus; reproduction developmental)?
**A.** 125 mg/kg-day

**Q.** What about the NOEC (Colinus virginianus; short-term, oral, diet) of the same molecule?
**A.** > 948 mg/kg-day

**Q.** And the LC50 (Pontoscolex corethrurus; acute, mortality)?
**A.** > 250 mg/kg

**Q.** And the NOEC (Pontoscolex corethrurus)?
**A.** 10.4 mg/kg

**Q.** And the NOEC (Pontoscolex corethrurus; reproduction)?
**A.** 3 mg/kg

**Q.** What about the NOEC (Pimephales promelas) of the same molecule?
**A.** 0.228 mg/L
